Source: patent US8653089B2, “Heterocyclic compounds and methods of use” (F. Hoffmann-La Roche AG, priority 2011, dated 2014)
Values belong to the compound of their own block, whether it stands above or below them.

Key:
p110 delta = target: T1, p110 delta (Homo sapiens, UniProt O00329); assay: PI3K isoform inhibition assay (fluorescence polarization), p110 delta; assay type: biochemical; settings: p110 delta binding IC50, selected compounds from Table 1
T1 construct: purchased Upstate Group, Millipore; Dundee, UK
T1 sequence (O00329 whole entry, canonical isoform): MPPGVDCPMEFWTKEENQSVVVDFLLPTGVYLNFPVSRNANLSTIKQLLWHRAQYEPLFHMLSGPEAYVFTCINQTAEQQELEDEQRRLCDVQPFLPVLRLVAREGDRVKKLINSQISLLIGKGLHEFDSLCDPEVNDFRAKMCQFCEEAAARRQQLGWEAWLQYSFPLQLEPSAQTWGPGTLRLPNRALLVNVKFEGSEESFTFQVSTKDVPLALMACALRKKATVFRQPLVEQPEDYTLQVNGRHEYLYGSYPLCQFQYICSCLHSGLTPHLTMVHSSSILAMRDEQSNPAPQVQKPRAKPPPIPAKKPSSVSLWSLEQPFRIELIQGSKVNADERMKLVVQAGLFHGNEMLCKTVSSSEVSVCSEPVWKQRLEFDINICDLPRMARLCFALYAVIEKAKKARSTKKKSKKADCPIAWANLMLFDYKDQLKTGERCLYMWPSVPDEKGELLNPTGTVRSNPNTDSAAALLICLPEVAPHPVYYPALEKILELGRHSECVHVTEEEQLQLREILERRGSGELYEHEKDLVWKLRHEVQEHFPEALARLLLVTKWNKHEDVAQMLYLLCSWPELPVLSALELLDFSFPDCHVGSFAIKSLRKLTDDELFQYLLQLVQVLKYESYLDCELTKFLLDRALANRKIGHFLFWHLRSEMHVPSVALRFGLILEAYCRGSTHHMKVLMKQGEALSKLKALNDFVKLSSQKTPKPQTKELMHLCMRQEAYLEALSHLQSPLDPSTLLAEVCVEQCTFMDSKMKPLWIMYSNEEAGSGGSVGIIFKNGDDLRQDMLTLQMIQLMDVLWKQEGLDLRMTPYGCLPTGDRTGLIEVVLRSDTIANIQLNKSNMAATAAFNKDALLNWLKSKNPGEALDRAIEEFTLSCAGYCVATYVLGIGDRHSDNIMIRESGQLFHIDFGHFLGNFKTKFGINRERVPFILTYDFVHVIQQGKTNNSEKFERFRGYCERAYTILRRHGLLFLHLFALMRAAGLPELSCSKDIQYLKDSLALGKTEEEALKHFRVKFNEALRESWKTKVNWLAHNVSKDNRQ
T1 sequence (P27986 whole entry partner, canonical isoform): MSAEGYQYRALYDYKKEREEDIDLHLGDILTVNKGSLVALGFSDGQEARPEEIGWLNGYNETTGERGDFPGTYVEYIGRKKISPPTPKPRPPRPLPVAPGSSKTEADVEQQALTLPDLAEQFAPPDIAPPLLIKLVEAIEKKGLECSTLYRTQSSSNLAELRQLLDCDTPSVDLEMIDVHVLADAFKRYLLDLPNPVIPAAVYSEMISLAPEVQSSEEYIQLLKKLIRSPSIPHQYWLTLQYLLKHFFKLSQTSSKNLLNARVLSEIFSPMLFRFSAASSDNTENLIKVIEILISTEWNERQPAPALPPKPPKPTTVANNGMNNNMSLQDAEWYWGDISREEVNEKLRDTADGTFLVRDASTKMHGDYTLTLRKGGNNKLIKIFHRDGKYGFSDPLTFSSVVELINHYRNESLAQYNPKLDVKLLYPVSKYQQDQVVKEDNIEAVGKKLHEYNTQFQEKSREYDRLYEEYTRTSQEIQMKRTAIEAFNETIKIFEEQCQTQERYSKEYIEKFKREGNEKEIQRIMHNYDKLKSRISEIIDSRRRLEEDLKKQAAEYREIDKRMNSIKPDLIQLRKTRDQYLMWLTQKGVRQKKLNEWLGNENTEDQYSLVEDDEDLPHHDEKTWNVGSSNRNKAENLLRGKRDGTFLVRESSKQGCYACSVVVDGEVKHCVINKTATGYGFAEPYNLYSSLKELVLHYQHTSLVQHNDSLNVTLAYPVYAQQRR
Procedure: PI3K enzymatic activity was assayed by measuring the amount of product phosphatidylinositol 3,4,5-phosphate (PIP3) formed from substrate 4,5 phosphatidylinositol 4,5-phosphate (PIP2) using a fluorescence polarization displacement assay. The decrease in fluorescence polarization of a fluorescent PIP3 probe is measured as it is displaced from a PIP3-binding protein GRP-1detector by PI3K-catalyzed product. Assays were conducted in 384-well black Proxiplates in the presence of 10 mM Tris (pH 7.5), 50 mM NaCl, 4 mM MgCl2, 5% glycerol, 25 μM ATP, 10 μM PIP2 (Echelon Biosciences), 0.05% 3-[(3-cholamidopropyl)dimethylammonio]-1-propanesulfonate, 1 mM dithiothreitol, and 2% DMSO. The kinase reactions were initiated by the addition of 40 ng/mL p110α/p85α, 300 ng/mL p110β/p85α, 40 ng/mL p110γ, or 40 ng/mL p110δ/p85α (Upstate Group, Millipore; Dundee, UK), and 10 μM PIP2 (Echelon Biosciences) to the wells. The reactions were stopped at timepoints that yielded a fixed change in fluorescence polarization consistent with initial rate conditions (typically 30 minutes), by the addition of 12.5 mM EDTA, 100 nM GRP-1 detector, and 5 nM tetramethylrhodamine-labeled PIP3 (TAMRA-PIP3; Echelon Biosciences). After 60 minutes of incubation at room temperature to allow equilibration of labeled and unlabeled PIP3 binding, the parallel and perpendicular components of the fluorescence emissions from each sample were measured at an excitation wavelength of 530 nm and an emission wavelength of 590 nm using an Envision fluorescent plate reader with a rhodamine filter (PerkinElmer Life and Analytical Sciences; Wellesley, Mass.). The assay is capable of detecting 0.1-2.0 μM PIP3 product. The IC50 values were obtained by fitting the dose-dependent inhibition data to a 4-parameter equation using Assay Explorer software (MDL, San Ramon, Calif.). […]
(§1) Recombinant PI3K p110 isoforms alpha, beta, and delta may be prepared and purified according to US 2008/0275067 from recombinant PI3K heterodimeric complexes consisting of a p110 catalytic subunit and a p85 regulatory subunit overexpressed using the BAC-TO-BAC® HT baculovirus expression system (GIBCO/BRL), and then purified for use in biochemical assays. The four Class I PI 3-kinases are cloned into baculovirus vectors as follows:
p110 delta: A FLAG™-tagged (Eastman Kodak Co., U.S. Pat. No. 4,703,004; U.S. Pat. No. 4,782,137; U.S. Pat. No. 4,851,341) version of human p110.delta (Chantry et al., J. Biol. Chem. (1997) 272:19236-41) is subcloned using standard recombinant DNA techniques into the BamHI-XbaI site of the insect cell expression vector pFastbac HTb (Life Technologies, Gaithersburg, Md.), such that the clone is in frame with the His tag of the vector.

[1] = system: CD69 expression on CD20 positive cells in human whole blood stimulated by anti-IgM; assay: CD69 Whole Blood Assay; assay type: cell-based; settings: concentration decreasing by 50% the percent CD69 positive cells that are also CD20 positive, 20 hours
Source text: Human blood is obtained from healthy volunteers, with the following restrictions: 1 week drug-free, non-smokers. Blood (approximately 20 mls to test 8 compounds) is collected by venipuncture into Vacutainer tubes with sodium heparin.
Cynomolgus monkey blood is obtained courtesy of the LAT group from monkeys not previously exposed to, or after a washout period from, chemical dosing. Additional cyno blood draws may be collected during the course of pharmacokinetic or toxicology studies. Blood (25-30 mls for naïve monkeys or 3-4 mls from monkeys on studies requiring repeated draws) is collected by venipuncture into Vacutainer tubes with sodium heparin.
Solutions of Formula I compounds at 1000 or 2000 μM in PBS (20×), are diluted by three-fold serial dilutions in 10% DMSO in PBS for a nine point dose-response curve. An aliquot of 5.5 μl of each compound is added in duplicate to a 2 ml 96-well plate; 5.5 μl of 10% DMSO in PBS is added as control and no-stimulus wells. Human whole blood—HWB (100 μl) is added to each well. After mixing the plates are incubated at 37° C., 5% CO2, 100% humidity for 30 minutes. Goat F(ab′)2 anti-human IgM (10 μl of a 500 μg/ml solution, 50 μg/ml final) is added to each well (except the no-stimulus wells) with mixing and the plates are incubated for an additional 20 hours. At the end of the 20 hour incubation, samples are incubated with fluorescent labeled antibodies for 30 minutes, at 37° C., 5% CO2, 100% humidity. Include induced control, unstained and single stains for compensation adjustments and initial voltage settings. Samples are then lysed with Pharmingen Lyse according to the manufacturer's instructions. Samples are then transferred to a 96 well plate suitable to be run on the AMS 96 well system on the BD Calibur FACs machine. Data acquired and Mean Fluorescence Intensity values were obtained using Cell Quest Software. Results are initially analyzed by FACS analysis software (Flow Jo). […] The […] values are calculated by ActivityBase using Xlfit version 3, equation 201.

p110 alpha = target: T2, p110 alpha (Homo sapiens, UniProt P42336); assay: PI3K isoform inhibition assay, p110 alpha (delta/alpha selectivity); assay type: biochemical; settings: delta/alpha selectivity ratio
T2 construct: purchased Upstate Group, Millipore; Dundee, UK
T2 sequence (P42336 whole entry, canonical isoform): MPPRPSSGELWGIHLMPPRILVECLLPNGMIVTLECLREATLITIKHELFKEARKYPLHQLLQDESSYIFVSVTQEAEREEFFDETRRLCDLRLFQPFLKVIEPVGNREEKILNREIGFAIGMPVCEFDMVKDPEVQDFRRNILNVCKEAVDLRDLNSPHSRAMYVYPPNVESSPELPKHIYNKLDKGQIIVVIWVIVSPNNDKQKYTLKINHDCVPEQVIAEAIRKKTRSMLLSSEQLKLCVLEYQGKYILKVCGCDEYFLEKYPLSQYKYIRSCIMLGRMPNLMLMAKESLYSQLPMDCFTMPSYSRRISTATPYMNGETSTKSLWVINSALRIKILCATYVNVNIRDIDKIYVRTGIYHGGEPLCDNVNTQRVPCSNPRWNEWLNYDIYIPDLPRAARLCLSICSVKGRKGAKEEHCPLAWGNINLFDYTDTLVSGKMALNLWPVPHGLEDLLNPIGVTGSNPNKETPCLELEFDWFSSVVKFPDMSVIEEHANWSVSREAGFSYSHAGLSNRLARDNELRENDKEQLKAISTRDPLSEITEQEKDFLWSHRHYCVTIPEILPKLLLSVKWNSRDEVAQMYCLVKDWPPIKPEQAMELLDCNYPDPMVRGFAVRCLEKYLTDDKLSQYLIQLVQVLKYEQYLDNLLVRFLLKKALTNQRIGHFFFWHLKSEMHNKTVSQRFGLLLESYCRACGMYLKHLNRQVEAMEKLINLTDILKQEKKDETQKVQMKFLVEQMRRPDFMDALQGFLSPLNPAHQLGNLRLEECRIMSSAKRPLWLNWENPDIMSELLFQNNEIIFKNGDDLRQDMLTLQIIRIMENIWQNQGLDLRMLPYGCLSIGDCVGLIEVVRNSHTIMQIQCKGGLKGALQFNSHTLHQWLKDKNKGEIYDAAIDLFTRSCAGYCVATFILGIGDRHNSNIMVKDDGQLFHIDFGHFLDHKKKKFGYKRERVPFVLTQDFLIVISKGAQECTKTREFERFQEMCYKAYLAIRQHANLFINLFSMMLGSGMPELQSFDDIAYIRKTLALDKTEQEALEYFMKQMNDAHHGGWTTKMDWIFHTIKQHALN
T2 sequence (P27986 whole entry partner, canonical isoform): as the sequence (P27986 whole entry partner, canonical isoform) above
Procedure: PI3K enzymatic activity was assayed by measuring the amount of product phosphatidylinositol 3,4,5-phosphate (PIP3) formed from substrate 4,5 phosphatidylinositol 4,5-phosphate (PIP2) using a fluorescence polarization displacement assay. The decrease in fluorescence polarization of a fluorescent PIP3 probe is measured as it is displaced from a PIP3-binding protein GRP-1detector by PI3K-catalyzed product. Assays were conducted in 384-well black Proxiplates in the presence of 10 mM Tris (pH 7.5), 50 mM NaCl, 4 mM MgCl2, 5% glycerol, 25 μM ATP, 10 μM PIP2 (Echelon Biosciences), 0.05% 3-[(3-cholamidopropyl)dimethylammonio]-1-propanesulfonate, 1 mM dithiothreitol, and 2% DMSO. The kinase reactions were initiated by the addition of 40 ng/mL p110α/p85α, 300 ng/mL p110β/p85α, 40 ng/mL p110γ, or 40 ng/mL p110δ/p85α (Upstate Group, Millipore; Dundee, UK), and 10 μM PIP2 (Echelon Biosciences) to the wells. The reactions were stopped at timepoints that yielded a fixed change in fluorescence polarization consistent with initial rate conditions (typically 30 minutes), by the addition of 12.5 mM EDTA, 100 nM GRP-1 detector, and 5 nM tetramethylrhodamine-labeled PIP3 (TAMRA-PIP3; Echelon Biosciences). After 60 minutes of incubation at room temperature to allow equilibration of labeled and unlabeled PIP3 binding, the parallel and perpendicular components of the fluorescence emissions from each sample were measured at an excitation wavelength of 530 nm and an emission wavelength of 590 nm using an Envision fluorescent plate reader with a rhodamine filter (PerkinElmer Life and Analytical Sciences; Wellesley, Mass.). The assay is capable of detecting 0.1-2.0 μM PIP3 product. The IC50 values were obtained by fitting the dose-dependent inhibition data to a 4-parameter equation using Assay Explorer software (MDL, San Ramon, Calif.).
Alternatively, inhibition of PI3K was determined in a radiometric assay using purified, recombinant enzyme and ATP at a concentration of 1 uM. The Formula I compound was serially diluted in 100% DMSO. The kinase reaction was incubated for 1 h at room temperature, and the reaction was terminated by the addition of PBS. IC50 values were subsequently determined using sigmoidal dose-response curve fit (variable slope).
The same protocol may be used to establish IC50 values for p110α (alpha) PI3K binding.
as §1
p110 alpha: Similar to the method used for p110 delta, described above, a FLAG™-tagged version of p110 alpha (Volinia et al (1994) Genomics, 24(3):427-77) was subcloned in BamH1-HindIII sites of pFastbac HTb (Life Technologies) such that the clone was in frame with the His tag of the vector.

Structure (SMILES): C[C@H](Nc1ncnc2[nH]cnc12)c1nc2ccc(F)cc2n1-c1ccccc1 [Example 123, (S)—N-(1-(6-fluoro-1-phenyl-1H-benzo[d]imidazol-2-yl)ethyl)-9H-purin-6-amine]
IC50 (p110 delta): 0.854 nM
IC50 [1]: 29.1 nM
IC50 p110 alpha/IC50 p110 delta (greater than or equal to, ≧) (p110 alpha): ≥ 2459

Structure (SMILES): C[C@H](Nc1ncnc2[nH]cnc12)c1nc2cccc(F)c2n1-c1ccccc1 [Example 124, (S)—N-(1-(7-fluoro-1-phenyl-1H-benzo[d]imidazol-2-yl)ethyl)-9H-purin-6-amine]
IC50 [1]: 67.1 nM

Structure (SMILES): C[C@H](Nc1ncnc2[nH]cnc12)c1nc2cccc(Cl)c2n1-c1ccccc1 [Example 138, (S)—N-(1-(7-chloro-1-phenyl-1H-benzo[d]imidazol-2-yl)ethyl)-9H-purin-6-amine]
IC50 [1]: 87.6 nM

Further compounds by falling IC50 [1], results first:

IC50 [1]: 179 nM
Structure (SMILES): CC[C@H](Nc1ncnc2nc[nH]c12)c1nc2ccc(F)cc2n1-c1ccccc1 [Example 160, (S)—N-(1-(6-fluoro-1-phenyl-1H-benzo[d]imidazol-2-yl)propyl)-7H-purin-6-amine]

IC50 (p110 delta): 20.1 nM
IC50 [1]: 83.4 nM
IC50 p110 alpha/IC50 p110 delta (greater than or equal to, ≧) (p110 alpha): ≥ 104
Structure (SMILES): C[C@H](Nc1ncnc2[nH]cnc12)c1nc2cccnc2n1-c1ccccc1 [Example 114, (S)—N-(1-(3-phenyl-3H-imidazo[4,5-b]pyridin-2-yl)ethyl)-9H-purin-6-amine]
